In test [1] the test system is CCRF S-180. In words: In vivo antitumor activity against mouse S180 cells implanted in mouse assessed as cell growth at 0.625 ug/mouse for 10 days relative to control. The test is classed as functional.
Test [2] relates to CCRF S-180. Briefly: In vivo antitumor activity against mouse S180 cells implanted in mouse assessed as cell growth at 1.25 ug/mouse for 10 days relative to control. The test is classed as functional.
Test [3] has as its system CCRF S-180. Briefly: In vivo antitumor activity against mouse S180 cells implanted in mouse assessed as cell growth at 2.5 ug/mouse for 10 days relative to control. The test is classed as functional.
The subject of test [4] is CCRF S-180. In words: In vivo antitumor activity against mouse S180 cells implanted in mouse after 10 days. It counts as functional, organism-based.
The test system of test [5] is CCRF S-180. Briefly: In vivo antitumor activity against mouse S180 cells implanted in mouse assessed as cell growth at 10 ug/mouse for 10 days relative to control. The test is classed as functional.
In test [6] the test system is CCRF S-180. In words: In vivo antitumor activity against mouse S180 cells implanted in mouse assessed as cell growth at 5 ug/mouse for 10 days relative to control. It counts as functional.
Test [7] relates to CCRF S-180. Briefly: In vivo antitumor activity against mouse S180 cells implanted in mouse assessed as cell growth at 20 ug/mouse for 10 days relative to control. The test is classed as functional.
Test [8] has as its system CCRF S-180. Briefly: Antitumor activity against mouse S180 cells implanted in mouse in presence of cyclophosphamide administered 24 hrs prior to implantation. The test is classed as functional, cell-based.
Test [9] relates to CCRF S-180. Briefly: Cytotoxicity against mouse S180 cells. It counts as functional, cell-based.
Test [10] has as its system CCRF S-180. Briefly: In vivo antitumor activity against mouse S180 cells implanted in mouse assessed as cell growth at 60 ug/mouse for 10 days relative to control. The test is classed as functional.
A further test has as its system KB. In words: Cytotoxicity against human KB cells. The test is classed as functional, cell-based.
Test [11] deals with CCRF S-180. Briefly: In vivo antitumor activity against mouse S180 cells implanted in mouse assessed as cell growth at 40 ug/mouse for 10 days relative to control. It counts as functional.
In another test the test system is L1210. Briefly: Cytotoxicity against mouse L1210 cells. The test is classed as functional, cell-based.

Molecules are shown by their SMILES. The source made the active and inactive calls. No cut-off for these calls is given here. Some results are limits rather than exact numbers.

As for `O=C(O)CC1C(=O)Nc2ccccc21` (stereo not given), the T/C in the test on CCRF S-180 [1] turned out to be 36%; with CCRF S-180 [2], 16%; in the test with CCRF S-180 [3], 0%; in the test on CCRF S-180 [5], 0%; with CCRF S-180 [6], 0%; in the test on CCRF S-180 [7], 0%. Besides, the IC50 result in the test on CCRF S-180 [4] was “<= 1 ug”.

As to `O=C1CC(C(=O)O)c2ccccc2N1` (racemic), the T/C in the test with CCRF S-180 [1] was found to be 62%; with CCRF S-180 [2], 30%; in the test with CCRF S-180 [3], 0%; with CCRF S-180 [5], 0%; in the test with CCRF S-180 [6], 0%; in the test with CCRF S-180 [7] it was 0%. Besides, the IC50 entry in the test with CCRF S-180 [4] is reported as “<= 1 ug”.

For `COc1cc(C2c3cc(O[C@@H]4O[C@H](COC(=O)CC5C(=O)Nc6ccccc65)[C@@H](O)[C@H](O)[C@H]4O)c(O)cc3C3C(=O)O[C@H]4[C@H](O)[C@@H](COC(=O)C32)O[C@@]4(CO)O[C@H]2O[C@H](CO)[C@@H](O)[C@H](O)[C@H]2O)ccc1O` (stereo not given in full) [SECALOSDIE A/B], the outcome in the test on CCRF S-180 [8], in the test with CCRF S-180 [9], in the test on KB and in the test with L1210 was inactive. The T/C in the test with CCRF S-180 [10] turned out to be 0%; with CCRF S-180 [11], 2%; in the test with CCRF S-180 [3], 70%; with CCRF S-180 [5], 24%; with CCRF S-180 [6] it was 45%; in the test with CCRF S-180 [7], 17%. Besides, the IC50 in the test on CCRF S-180 [4] turned out to be 5 µg.

Usually T/C stands for the result in the treated group divided by that in the control group, in per cent.

(Values after ChEMBL document CHEMBL1145721, “The secalosides, novel tumor cell growth inhibitory glycosides from a pollen extract” (J Nat Prod, 1997).)
